Measured values from publication PMC6479757, “Coralmycin Derivatives with Potent Anti-Gram Negative Activity Produced by the Myxobacteria Corallococcus coralloides M23” (Molecules, 2019).
Values after ≈ are worked out from the molar mass of the structure shown. Where two headings read alike, the source gives them in different places.

Columns and labels:
E. coli DNA gyrase = target: T1, E. coli DNA gyrase (Escherichia coli, UniProt P0AES4+P0AES6); assay: DNA gyrase supercoiling assay; assay type: biochemical
T1 construct: purchased TopoGEN TG2001G
T1 sequence (P0AES4 whole entry, one chain of several): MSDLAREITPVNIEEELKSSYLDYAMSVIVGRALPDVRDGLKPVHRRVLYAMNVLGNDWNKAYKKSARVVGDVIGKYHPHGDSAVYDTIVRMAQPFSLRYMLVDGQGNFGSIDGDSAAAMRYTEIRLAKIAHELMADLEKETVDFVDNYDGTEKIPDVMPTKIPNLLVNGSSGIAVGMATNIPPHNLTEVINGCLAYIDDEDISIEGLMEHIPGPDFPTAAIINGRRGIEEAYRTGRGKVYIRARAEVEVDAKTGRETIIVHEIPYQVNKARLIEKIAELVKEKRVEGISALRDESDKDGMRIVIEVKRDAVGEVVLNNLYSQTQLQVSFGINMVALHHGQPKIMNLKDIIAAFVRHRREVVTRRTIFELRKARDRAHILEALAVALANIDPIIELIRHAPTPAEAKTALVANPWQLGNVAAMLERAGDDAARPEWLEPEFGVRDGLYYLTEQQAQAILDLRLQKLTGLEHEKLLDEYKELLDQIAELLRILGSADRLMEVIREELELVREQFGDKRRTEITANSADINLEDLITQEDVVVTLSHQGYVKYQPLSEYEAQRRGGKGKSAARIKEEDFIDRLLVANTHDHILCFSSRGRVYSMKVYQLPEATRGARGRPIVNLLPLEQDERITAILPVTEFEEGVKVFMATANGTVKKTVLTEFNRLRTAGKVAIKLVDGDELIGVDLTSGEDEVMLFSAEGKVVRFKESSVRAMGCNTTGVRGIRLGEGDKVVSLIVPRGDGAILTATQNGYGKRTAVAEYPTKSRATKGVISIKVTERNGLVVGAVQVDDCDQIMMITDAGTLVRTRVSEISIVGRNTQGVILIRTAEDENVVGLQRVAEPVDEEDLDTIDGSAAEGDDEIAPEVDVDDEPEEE
Description: The inhibitory activities of coralmycins on the supercoiling activity of DNA gyrase were investigated using a ‘Purified E. coli DNA Gyrase Drug Screening Kit’ (TopoGEN #TG2001G, Buena Vista, CO, USA). […] The reaction was terminated by the addition of 2 μL of 10% (w/v) SDS and 2 μL of 10× DNA gel loading dye (bromophenol blue). Then, 20 μL of chloroform:isoamyl alcohol (24:1 mixture) was added, and the mixture was vortexed and then centrifuged. The samples in the blue phase were run on 1% (w/v) agarose gel and were visualized using ethidium bromide. All reactions were performed in triplicate. To calculate the IC50 values, the band densities were measured using ImageJ (National Institutes of Health, Bethesda, Maryland, MD, USA).

[1] = system: Enterococcus faecalis KCTC 5191; assay: Antibacterial susceptibility, broth microdilution MIC; assay type: cell-based; conditions: KCTC5191, 24-h incubation at 37 °C
Description: (§1) Whole-cell antimicrobial activities were determined using a broth microdilution method described previously. Most of the test strains were grown to mid-log phase in Mueller–Hinton broth and diluted 1,000-fold in the same medium. Cells (10^5/mL) were dispensed at 0.2 mL/well in 96-well microtiter plates. Streptococcus pneumonia and Acinetobacter baumanii were grown in Todd–Hewitt medium and nutrient broth, respectively. […]. Cells were treated with 0.05% DMSO as a vehicle control. The MICs were determined in triplicate by serial two-fold dilutions of the test compounds. […] Bacterial growth was determined by measuring the absorption at 650 nm using a microtiter enzyme-linked immunosorbent assay (ELISA) reader (Molecular Devices Corporation, Sunnyvale, CA, USA).

[2] = system: Klebsiella pneumoniae KCTC 22057; assay: as above; assay type: cell-based; conditions: KCTC22057; Klebsiella pneumoniae KCTC 22057; 24-h incubation at 37 °C
Description: as §1

[3] = system: Acinetobacter baumannii KCTC 2508; assay: as above; assay type: cell-based; conditions: KCTC2508, nutrient broth, 24-h incubation at 37 °C
Description: as §1

QRSA CCARM 3519 = assay: as above; assay type: cell-based; conditions: Staphylococcus aureus
Description: as §1

E. coli CCARM 1356 = assay: as above; assay type: cell-based; conditions: Escherichia coli, CCARM1356, 24-h incubation at 37 °C
Description: as §1

[4] = system: Pseudomonas aeruginosa KCTC 2004; assay: as above; assay type: cell-based; conditions: KCTC2004; Pseudomonas aeruginosa KCTC 2004; 24-h incubation at 37 °C
Description: as §1

E. coli KCTC 1682 = assay: as above; assay type: cell-based; conditions: Escherichia coli
Description: as §1

MRSA CCARM 3167 = assay: as above; assay type: cell-based; conditions: Staphylococcus aureus, 24-h incubation at 37 °C
Description: as §1

QRSA CCARM 3505 = assay: as above; assay type: cell-based; conditions: Staphylococcus aureus
Description: as §1

MRSA CCARM 3506 = assay: as above; assay type: cell-based; conditions: Staphylococcus aureus, 24-h incubation at 37 °C
Description: as §1

[5] = system: Streptococcus pneumonia KCTC 5412; assay: as above; assay type: cell-based; conditions: Streptococcus pneumoniae, KCTC5412, Todd–Hewitt medium, 24-h incubation at 37 °C
Description: as §1

[6] = system: Staphylococcus aureus RN 4220; assay: as above; assay type: cell-based; conditions: RN4220, 24 h
Description: Whole-cell antimicrobial activities were determined using a broth microdilution method described previously. Most of the test strains were grown to mid-log phase in Mueller–Hinton broth and diluted 1,000-fold in the same medium. Cells (10^5/mL) were dispensed at 0.2 mL/well in 96-well microtiter plates. Streptococcus pneumonia and Acinetobacter baumanii were grown in Todd–Hewitt medium and nutrient broth, respectively. […] Cells were treated with 0.05% DMSO as a vehicle control. The MICs were determined in triplicate by serial two-fold dilutions of the test compounds. […] Bacterial growth was determined by measuring the absorption at 650 nm using a microtiter enzyme-linked immunosorbent assay (ELISA) reader (Molecular Devices Corporation, Sunnyvale, CA, USA).

[7] = CCARM3519, QRSA CCARM 3519, 24-h incubation at 37 °C, read-out: MIC
[8] = KCTC1682, 24-h incubation at 37 °C, Table 6 and Table S1, read-out: MIC
[9] = KCTC1682, Table 7, read-out: MIC, antibacterial activity on E. coli KCTC 1682
[10] = CCARM3505, QRSA CCARM 3505, 24-h incubation at 37 °C, read-out: MIC

**Q.** How did the IC50 (E. coli DNA gyrase) turn out when CCOc1cc(C(=O)O)ccc1NC(=O)c1ccc(NC(=O)c2ccc(N)cc2)c(OCC)c1O [Compound 4, Coralmycin F] was run?
**A.** The IC50 was greater than 300000 nM.

**Q.** And the MIC [1]?
**A.** The MIC was greater than 32 µg/mL.

**Q.** What about the MIC [2] of the same compound?
**A.** The MIC was greater than 32 µg/mL.

**Q.** And the MIC [3]?
**A.** The MIC was greater than 32 µg/mL.

**Q.** And the MIC (QRSA CCARM 3519; [7])?
**A.** The MIC was greater than 32 µg/mL.

**Q.** What about the MIC (E. coli CCARM 1356) of the same compound?
**A.** The MIC was greater than 32 µg/mL.

**Q.** And the MIC [4]?
**A.** Its MIC is greater than 32 µg/mL.

**Q.** And the MIC (E. coli KCTC 1682; [8])?
**A.** Its MIC is greater than 32 µg/mL.

**Q.** What about the MIC (E. coli KCTC 1682; [9]) of the same compound?
**A.** Its MIC is greater than 32 µg/mL.

**Q.** And the MIC (MRSA CCARM 3167)?
**A.** The MIC was greater than 32 µg/mL.

**Q.** What about the MIC (QRSA CCARM 3505; [10]) of the same compound?
**A.** Its MIC is greater than 32 µg/mL.

**Q.** And the MIC (MRSA CCARM 3506)?
**A.** Its MIC is greater than 32 µg/mL.

**Q.** And the MIC [5]?
**A.** The MIC was greater than 32 µg/mL.

**Q.** What about the MIC [6] of the same compound?
**A.** The MIC was greater than 32 µg/mL.

**Q.** How did the MIC [1] turn out when CCOc1cc(C(=O)O)ccc1NC(=O)c1ccc(NC(=O)c2ccc(N)cc2)c(OC(C)C)c1O [Compound 7, Coralmycin I] was run?
**A.** Its MIC is greater than 32 µg/mL.

**Q.** And the MIC [2]?
**A.** Its MIC is greater than 32 µg/mL.

**Q.** And the MIC [3]?
**A.** Its MIC is greater than 32 µg/mL.

**Q.** And the MIC (QRSA CCARM 3519; [7])?
**A.** The MIC was greater than 32 µg/mL.

**Q.** And the MIC (E. coli CCARM 1356)?
**A.** The MIC was greater than 32 µg/mL.

**Q.** What about the MIC [4] of the same compound?
**A.** The MIC was greater than 32 µg/mL.

**Q.** What about the MIC (E. coli KCTC 1682; [8]) of the same compound?
**A.** Its MIC is greater than 32 µg/mL.

**Q.** And the MIC (MRSA CCARM 3167)?
**A.** Its MIC is greater than 32 µg/mL.

**Q.** And the MIC (QRSA CCARM 3505; [10])?
**A.** The MIC was greater than 32 µg/mL.

**Q.** And the MIC (MRSA CCARM 3506)?
**A.** The MIC was greater than 32 µg/mL.

**Q.** What about the MIC [5] of the same compound?
**A.** The MIC was greater than 32 µg/mL.

**Q.** And the MIC [6]?
**A.** Its MIC is greater than 32 µg/mL.

**Q.** With CO[C@H](C(=O)O)[C@H](NC(=O)c1ccc(NC(=O)c2ccc([N+](=O)[O-])cc2)cc1)C(=O)Nc1ccc(C(=O)Nc2ccc(C(=O)Nc3ccc(C(=O)O)cc3OC(C)C)c(O)c2OC(C)C)cc1 [Compound 13, coralmycin B, reference compound] as the compound, how does the IC50 (E. coli DNA gyrase; relaxed plasmid, 37 °C for 30 min, agarose gel band densities, read-out: IC50, inhibition of the supercoiling activity of E. coli DNA gyrase) read?
**A.** Its IC50 is 1070 nM.

**Q.** What about the MIC [1] of the same compound?
**A.** Its MIC is 4 µg/mL (≈ 4.34 µM).

**Q.** What about the MIC [2] of the same compound?
**A.** The MIC was greater than 16 µg/mL.

**Q.** And the MIC [3]?
**A.** Its MIC is 4 µg/mL (≈ 4.34 µM).

**Q.** What about the MIC (E. coli CCARM 1356) of the same compound?
**A.** The MIC was 16 µg/mL (≈ 17.4 µM).

**Q.** What about the MIC [4] of the same compound?
**A.** Its MIC is greater than 16 µg/mL.

**Q.** What about the MIC (E. coli KCTC 1682; [8]) of the same compound?
**A.** The MIC was 4 µg/mL (≈ 4.34 µM).

**Q.** What about the MIC (E. coli KCTC 1682; [9]) of the same compound?
**A.** The MIC was 4 µg/mL (≈ 4.34 µM).

**Q.** And the MIC (MRSA CCARM 3167)?
**A.** The MIC was 1 µg/mL (≈ 1.09 µM).

**Q.** And the MIC (MRSA CCARM 3506)?
**A.** The MIC was 1 µg/mL (≈ 1.09 µM).

**Q.** What about the MIC [5] of the same compound?
**A.** Its MIC is greater than 16 µg/mL.

**Q.** What about the MIC [6] of the same compound?
**A.** The MIC was 2 µg/mL (≈ 2.17 µM).

**Q.** Which results are given for COc1cc(C(=O)O)ccc1NC(=O)c1ccc(NC(=O)c2ccc(N)cc2)c(OC(C)C)c1O [Compound 5, Coralmycin G]?
**A.** MIC [1]: > 32 µg/mL; MIC [2]: > 32 µg/mL; MIC [3]: > 32 µg/mL; MIC (QRSA CCARM 3519; [7]): > 32 µg/mL; MIC (E. coli CCARM 1356): > 32 µg/mL; MIC [4]: > 32 µg/mL; MIC (E. coli KCTC 1682; [8]): > 32 µg/mL; MIC (MRSA CCARM 3167): > 32 µg/mL; MIC (QRSA CCARM 3505; [10]): > 32 µg/mL; MIC (MRSA CCARM 3506): > 32 µg/mL; MIC [5]: > 32 µg/mL; MIC [6]: > 32 µg/mL

**Q.** How did the MIC [1] turn out when O=C(O)c1cn(C2CC2)c2cc(N3CCNCC3)c(F)cc2c1=O [Cip, Ciprofloxacin, reference compound] was run?
**A.** Its MIC is 0.5 µg/mL (≈ 1.51 µM).

**Q.** And the MIC [2]?
**A.** The MIC was 0.015 µg/mL (≈ 0.0453 µM).

**Q.** What about the MIC [3] of the same compound?
**A.** Its MIC is 0.25 µg/mL (≈ 0.754 µM).

**Q.** And the MIC (QRSA CCARM 3519; CCARM3519, 24 h)?
**A.** Its MIC is 128 µg/mL (≈ 386 µM).

**Q.** What about the MIC (E. coli CCARM 1356) of the same compound?
**A.** Its MIC is 64 µg/mL (≈ 193 µM).

**Q.** What about the MIC [4] of the same compound?
**A.** The MIC was 0.03 µg/mL (≈ 0.0905 µM).

**Q.** What about the MIC (E. coli KCTC 1682; [8]) of the same compound?
**A.** Its MIC is 0.06 µg/mL (≈ 0.181 µM).

**Q.** What about the MIC (E. coli KCTC 1682; [9]) of the same compound?
**A.** The MIC was 0.06 µg/mL (≈ 0.181 µM).

**Q.** And the MIC (QRSA CCARM 3505; CCARM3505, 24 h)?
**A.** Its MIC is 128 µg/mL (≈ 386 µM).

**Q.** And the MIC (MRSA CCARM 3506)?
**A.** The MIC was 2 µg/mL (≈ 6.04 µM).

**Q.** And the MIC [5]?
**A.** Its MIC is 0.25 µg/mL (≈ 0.754 µM).

**Q.** With CCOc1c(NC(=O)c2ccc(N)cc2)ccc(C(=O)Nc2ccc(C(=O)O)cc2OC(C)C)c1O [Compound 6, Coralmycin H] as the compound, how does the MIC [1] read?
**A.** Its MIC is greater than 32 µg/mL.

**Q.** What about the MIC [2] of the same compound?
**A.** The MIC was greater than 32 µg/mL.

**Q.** And the MIC [3]?
**A.** The MIC was greater than 32 µg/mL.

**Q.** And the MIC (QRSA CCARM 3519; [7])?
**A.** Its MIC is greater than 32 µg/mL.

**Q.** What about the MIC (E. coli CCARM 1356) of the same compound?
**A.** The MIC was greater than 32 µg/mL.

**Q.** What about the MIC [4] of the same compound?
**A.** Its MIC is greater than 32 µg/mL.

**Q.** What about the MIC (E. coli KCTC 1682; [8]) of the same compound?
**A.** Its MIC is greater than 32 µg/mL.

**Q.** What about the MIC (MRSA CCARM 3167) of the same compound?
**A.** The MIC was greater than 32 µg/mL.

**Q.** What about the MIC (QRSA CCARM 3505; [10]) of the same compound?
**A.** Its MIC is greater than 32 µg/mL.

**Q.** What about the MIC (MRSA CCARM 3506) of the same compound?
**A.** Its MIC is greater than 32 µg/mL.

**Q.** What about the MIC [5] of the same compound?
**A.** Its MIC is greater than 32 µg/mL.

**Q.** What about the MIC [6] of the same compound?
**A.** Its MIC is greater than 32 µg/mL.
